Reference: patent US20070004727A1, “Use of compounds for the prevention of drug-induced cell toxicity” (Reception ApS c/o Ostysk Innovation A/S, priority 2003, published 2007)

Tested on: uptake of gentamicin into the mouse kidneys
Experiment: Gentamicin uptake in mouse kidneys following i.p. administration of the compound
Type: in vivo
Conditions: for Effect of the inhibitors on the uptake of gentamicin into the mouse kidneys: 3 mg of inhibitor intraperitoneally in mice, as in Example 1 (FIG. 6), ranked among six inhibitors tested
Experimental: The effect of a compound, 2-[4-(2-aminoethyl)piperazin-1-yl]ethylamine (Aldrich, D2,340-8, lot 06028BO-332), according to the invention was tested in vivo. Gentamicin uptake in mouse kidneys following intraperitoneal (i.p.) administration of the compound was measured.
For normal application of radioactive gentamicin the following was performed: I.p. injection of 50 micrograms per kg of tritiated gentamicin with or without 3 mg of the inhibitor per mouse.
For competition of clinical doses of gentamicin 50 micrograms/kg of tritiated gentamicin plus 5 mg/kg of cold gentamicin (clinical dose) were injected in admixture with 3 mg total of 2-[4-(2-aminoethyl)piperazin-1-yl]ethylamine per mouse. A control received gentamicin only.
In this experiment 3 mg of the inhibitors 3-methylamino-1-(4-methylpiperazino)-2-propanole, 4-piperazinoaniline, piperazin-2-one-HCl, 2-[4-(2-aminoethyl)piperazin-1-yl]ethylamine, piperazine anhydrous, and 0.5 mg of 1-(3-chlorophenyl)piperazine diHCl (m-CPP), respectively, were administered intraperitoneally in mice (see FIG. 6) as described in Example 1. The effect of the inhibitors on the uptake of gentamicin into the mouse kidneys was determined by means of the assay described in Example 1.

Structure (SMILES)	Effect of the inhibitors on the uptake of gentamicin into the mouse kidneys	Inhibition (of gentamicin uptake in mouse kidneys) compared to the control (i.p., 50 micrograms/kg tritiated gentamicin plus 5 mg/kg cold gentamicin (clinical dose) in admixture with 3 mg total of compound per mouse, control received gentamicin only)
NCCN1CCN(CCN)CC1 [2-[4-(2-aminoethyl)piperazin-1-yl]ethylamine]	strongest gentamicin inhibitors	40%
Cl.O=C1CNCCN1 [piperazin-2-one-HCl]	strongest gentamicin inhibitors	–
C1CNCCN1 [piperazine anhydrous]	strongest gentamicin inhibitors	–
